The values below come from US8885174B2, “Monitoring energy and matter fluxes by use of electromagnetic radiations” (priority 2009, dated 2014).

“Also recorded” adds a separate entry of the source. Where two headings read alike, the source gives them in different places.

Assay [1] relates to cortical neurons in primary culture. In words: DHM multisite phase recording on unpatched cortical neurons in primary culture. In kind it is cell-based, mice. As to conditions: GABA 100 μM, 30 s. The protocol:
Neuronal cell cultures: Primary cultures of cortical neurons were prepared from E17 OF1 mice embryos. Briefly, embryos were decapitated and brains removed and placed in PBS-glucose. Cortex was removed under a dissecting microscope and collected in a small Petri dish in PBS-glucose. Cell dissociation was obtained by gentle trituration with a fire-polished Pasteur pipette in Neurobasal medium supplemented with B27 and GlutaMAX (Invitrogen). Cells were plated at an average density of 15000 cells/cm^2 in supplemented Neurobasal medium on poly-ornithine coated glass coverslips (20 mm Ø). After 3-4 h, coverslips were transferred to dishes containing glial cell monolayers in supplemented Neurobasal medium. Neurons were maintained at 37° C. in a humidified atmosphere of 95% air/5% CO2 and were used after 21-35 days in vitro (DIV).
Imaging: Holograms are acquired with a DHMT 1000 (Lyncée Tech SA, PSE-EPFL). A laser diode produces the coherent light (λ=683 nm) which is divided by a beam splitter into a reference wave and an object wave. The object wave diffracted by the specimen is collected by a microscope objective and interferes with a reference beam to produce the hologram recorded by the CCD camera. Frequency of hologram acquisition is 0.2 Hz. Reconstruction of the original image from the hologram is numerically achieved by a computer. The reconstruction algorithm provides simultaneous amplitude and quantitative phase images of the cells (Koala software). It is important to note that an extensive quality control of the DHM technique has been published by Rappaz et al “Comparative study of human erythrocytes by digital holographic microscopy, confocal microscopy, and impedance volume analyzer” Cytom Part A 73A, 895-903 (2008).
Neurons also presented heterogeneous phase responses.

The next assay relates to HEKnorm. In words: DHM phase signal recording on non-transfected HEK cells (HEKnorm). In kind it is cell-based. As to conditions: −100 mV, GABA 3 μM, 30 s. The method, then: (§1) Electrophysiology recording: All cultures were perfused in an artificial cerebrospinal fluid (ACSF) containing (in mM): […] (pH 7.4; Room temperature). For some experiments performed on HEK cells, picrotoxin (30 μM, Tocris) was added to the ACSF. […] Whole-cell recordings were made, and signals were amplified by using Multiclamp 700B amplifiers (Axon Instruments, Union City, Calif.) and digitized by means of an ITC-1600 interface (Instrutech, Great Neck, N.Y.) to a PC computer running Igor Pro (Wavemetrics, Portland, Oreg.). All currents (sampling interval, 5 kHz) were low-pass filtered (2 kHz). They were recorded with pipettes containing 95 mM potassium-gluconate, 40 mM KCl, 10 mM Hepes, 2 mM MgCl2 (pH 7.3). For some experiments, 95 mM potassium-gluconate was substituted with 95 mM KCl to reach a final concentration of [Cl^−]intrapip, to 139 mM. The pipettes were pulled with a DMZ universal puller.
Imaging: Holograms are acquired with a DHMT 1000 (Lyncée Tech SA, PSE-EPFL). […] The object wave diffracted by the specimen is collected by a microscope objective and interferes with a reference beam to produce the hologram recorded by the CCD camera. […] The reconstruction algorithm provides simultaneous amplitude and quantitative phase images of the cells (Koala software).

In assay [2] the target is T1, rat GABAA α1β2γ2s receptor expressed in HEK 293 cells (HEKGABA) (Rattus norvegicus, UniProt P18508+P62813+P63138). In words: Whole-cell electrophysiology recording of GABAA current (IGABA, I/V curve) on HEKGABA cells. The class given is cell-based. The conditions noted are these: GABA 3 μM or muscimol 1 μM, 30 s. An excerpt:
HEKGABA cells: HEK 293 cells stably expressing configurations of rat GABAA receptors (HEKGABA) were generously given by Hoffmann-LaRoche (Basel, Switzerland). Briefly, cDNAs encoding rat GABAA α1, β2 and γ2s subunits were subcloned into the expression vectors pIRESpuro2, pIRESneo2 and pIREShygro2 vectors (Clontech, Mountain View, Calif.), respectively. The pIRES/GABAA α1, β2, γ2s, constructs were sequenced to confirm their nucleotide sequence and then cotransfected into HEK 293 cells at a ratio of 1:1:2 (plasmid mass ratio) using the lipofectamine 2000 kit according to the manufacturer's instructions (Invitrogen, Carlsbad, Calif., USA). […] Cell colonies were isolated and expression of the GABAA α1β2γ2s receptor was determined by [^3H] flumazenil binding.
Electrophysiology recording: All cultures were perfused in an artificial cerebrospinal fluid (ACSF) containing (in mM): NaCl 150, KCl 3, D-glucose, 10 HEPES 10, CaCl2 3, and mM MgCl2. […] They were recorded with pipettes containing 95 mM potassium-gluconate, 40 mM KCl, 10 mM Hepes, 2 mM MgCl2 (pH 7.3). […]
Offline analysis: The electrophysiological and optical recordings were analysed by using MATLAB 7.6 (Mathworks Software, Natick, Mass.) and all curves have been fitted by using ORIGIN 7.5 (Microcal Software, Northampton, Mass.). […]

For assay [3], the target named is T1, rat GABAA α1β2γ2s receptor expressed in HEK 293 cells (HEKGABA). The class given is cell-based. As to conditions: −100 mV, picrotoxin 30 μM; for effect on phase signal in HEKGABA (in words): GABA 3 μM, muscimol 1 μM, 30 s.
Description: HEKGABA cells: HEK 293 cells stably expressing configurations of rat GABAA receptors (HEKGABA) were generously given by Hoffmann-LaRoche (Basel, Switzerland). Briefly, cDNAs encoding rat GABAA α1, β2 and γ2s subunits were subcloned into the expression vectors pIRESpuro2, pIRESneo2 and pIREShygro2 vectors (Clontech, Mountain View, Calif.), respectively. The pIRES/GABAA α1, β2, γ2s, constructs were sequenced to confirm their nucleotide sequence and then cotransfected into HEK 293 cells at a ratio of 1:1:2 (plasmid mass ratio) using the lipofectamine 2000 kit according to the manufacturer's instructions (Invitrogen, Carlsbad, Calif., USA). Transfected cells were grown in minimal essential medium (Invitrogen) supplemented with 10% fetal calf serum (Invitrogen), 20 mM HEPES (Invitrogen) and 100 U/ml penicillin/100 μg/ml streptomycin (Invitrogen) for 48 hours and then, the cells were transferred to the selection medium containing 0.3 μg/ml puromycin (Clontech, Mountain View, Calif., USA), 300 μg/ml hygromycin B (Roche Diagnostics, Mannheim, Germany) and 200 μg/ml G418 (Invitrogen) for the generation of stable cell lines. Cell colonies were isolated and expression of the GABAA α1β2γ2s receptor was determined by [^3H] flumazenil binding.
as §1
Imaging: Holograms are acquired with a DHMT 1000 (Lyncée Tech SA, PSE-EPFL). A laser diode produces the coherent light (λ=683 nm) which is divided by a beam splitter into a reference wave and an object wave. The object wave diffracted by the specimen is collected by a microscope objective and interferes with a reference beam to produce the hologram recorded by the CCD camera. Frequency of hologram acquisition is 0.2 Hz. Reconstruction of the original image from the hologram is numerically achieved by a computer. The reconstruction algorithm provides simultaneous amplitude and quantitative phase images of the cells (Koala software).
Offline analysis: The electrophysiological and optical recordings were analysed by using MATLAB 7.6 (Mathworks Software, Natick, Mass.) and all curves have been fitted by using ORIGIN 7.5 (Microcal Software, Northampton, Mass.). […] All data are presented as means±SEM. Student's t-test (paired or unpaired) to determine statistical significance (p<0.05).

T1 sequence (P63138 25-474): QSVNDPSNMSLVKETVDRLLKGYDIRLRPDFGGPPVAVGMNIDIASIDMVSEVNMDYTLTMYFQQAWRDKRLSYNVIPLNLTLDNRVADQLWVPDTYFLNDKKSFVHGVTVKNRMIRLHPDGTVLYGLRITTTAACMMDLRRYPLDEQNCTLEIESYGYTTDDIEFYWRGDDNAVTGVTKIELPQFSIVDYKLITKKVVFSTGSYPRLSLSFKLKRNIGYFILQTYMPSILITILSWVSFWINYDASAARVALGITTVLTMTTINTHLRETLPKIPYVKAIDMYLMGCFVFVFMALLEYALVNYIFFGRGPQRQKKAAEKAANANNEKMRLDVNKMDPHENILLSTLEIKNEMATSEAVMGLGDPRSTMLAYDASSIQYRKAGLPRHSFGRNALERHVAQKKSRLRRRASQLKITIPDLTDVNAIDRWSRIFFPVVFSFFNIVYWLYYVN
T1 sequence (P18508 39-466): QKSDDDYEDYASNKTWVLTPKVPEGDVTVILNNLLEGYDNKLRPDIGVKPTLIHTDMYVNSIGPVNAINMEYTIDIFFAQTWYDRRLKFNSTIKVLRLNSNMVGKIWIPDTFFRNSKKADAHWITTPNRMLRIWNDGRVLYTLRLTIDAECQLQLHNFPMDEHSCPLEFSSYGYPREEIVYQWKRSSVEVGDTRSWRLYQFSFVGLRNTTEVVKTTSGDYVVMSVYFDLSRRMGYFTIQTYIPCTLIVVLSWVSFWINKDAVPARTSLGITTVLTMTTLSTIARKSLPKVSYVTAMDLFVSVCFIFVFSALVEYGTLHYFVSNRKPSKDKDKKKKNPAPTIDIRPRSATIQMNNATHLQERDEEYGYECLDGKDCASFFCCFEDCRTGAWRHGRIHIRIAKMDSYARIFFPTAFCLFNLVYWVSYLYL
T1 sequence (P62813 28-455): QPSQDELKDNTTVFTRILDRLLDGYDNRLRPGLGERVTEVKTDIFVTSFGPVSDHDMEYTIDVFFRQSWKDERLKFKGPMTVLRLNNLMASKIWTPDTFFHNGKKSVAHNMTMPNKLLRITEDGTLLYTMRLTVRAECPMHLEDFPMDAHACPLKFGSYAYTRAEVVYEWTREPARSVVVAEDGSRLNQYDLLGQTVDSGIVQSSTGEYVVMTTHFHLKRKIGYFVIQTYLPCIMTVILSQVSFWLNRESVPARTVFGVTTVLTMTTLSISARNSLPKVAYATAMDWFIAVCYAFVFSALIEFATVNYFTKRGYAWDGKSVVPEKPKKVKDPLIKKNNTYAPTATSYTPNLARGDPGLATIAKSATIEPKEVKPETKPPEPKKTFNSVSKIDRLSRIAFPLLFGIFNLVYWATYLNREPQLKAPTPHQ

Turning to `NCCCC(=O)O` [GABA], the “phase response, neurons with increase of phase signal” value in assay [1] (3 of 46 cells) is reported as 1.16+/−0.47 °. Besides, the “phase response, neurons with decrease of phase signal” value in assay [1] (13 of 46 cells) is given as −2.55+/−0.29 °. Moreover, the “phase response, neurons with modest or no detectable signal” value in assay [1] (30 of 46 cells) was −0.16+/−0.2 °. In addition, in the assay on HEKnorm, the “effect on phase signal in HEKnorm (in words)” value was “no effect; also recorded: ineffective” and the “Δφ phase signal in HEKnorm” value amounted to 0.33±0.55 °.

On to `NCc1cc(=O)[nH]o1` [muscimol, Muscimol], for which the “reversal potential for Cl− (ECl) from I/V curve” value is reported as −27 mV in assay [2] ([Cl−]intrapip 40 mM (44 mM elsewhere in the source)) and −4 mV in assay [2] ([Cl−]intrapip 139 mM). In addition, the results for the “effect on phase signal in HEKGABA (in words)” value in assay [3] and in assay [3] (listed as Muscimol) were “mimicked the effect of GABA” and “mimicked”, respectively.

picrotoxin: in assay [3] (GABA 3 μM 30 s), the “change of phase response evoked by GABA in presence of antagonist” value is −82±17%. Further, the “effect on phase signal in HEKGABA (in words)” value was “reduces the phase shift” in assay [3] and “blocked” in assay [3] (listed as Picrotoxin).
